# According to US9265774B2, “Methods, compounds and pharmaceutical compositions for treating anxiety and mood disorders” (New York University, priority 2011, dated 2016):
# Experiments:
# [1] = system: repeated open-space swim model; test: Repeated open-space (forced) swim test; assay type: in vivo, mice; details: acute i.p., dp6FNE at 1, 3 and 10 mg/kg given along with phentolamine 5 mg/kg i.p.
# From the text: The first test involves an acute stress-induced model of depression (Steru, et al., Psychopharmacology 1985; 85: 367-370) whereas the second, a more prolonged, chronic depression that is more akin to chronic human depression (Stone, et al., Pharmacol Biochem Behav 2008; 91: 190-195).
# [2] = system: model of chronic depression in mice (repeated forced swim)
# From the text: We administered the pro-drugs shortly before one or more tests of antidepressant activity including reversal of immobility during tail suspension and forced swimming and attenuation of anhedonia produced by endotoxin administration. […] (Stone et al., Eur. J. Pharmacol. (2001) 420: 97-102) Because dp6FNE like all other antidepressants has an initial anorexic effect and acutely reduces the consumption of sweet solutions, in the test for anhedonia it was necessary to employ a non-nutritive hedonic behavior, FUST (sniffing of estrous female urine). […] (Stone et al., Neuropsychopharmacology (2011) 14: 319-331); Sun et al., J. Neurosci. Methods (2003) 126:35-40; Sun et al., Behavioral Pharmacology (2008) 19: 334-338).
# Mice were swum for 15 min/d on 4 d and tested for the response to acute i.p dp6FNE (1 or 3 mg/kg) alone or in combination with 8-OHDPAT (0.05 mg/kg) and corticosterone (3 mg/kg) on the 5th and final swim (15 min after drug administration). […] Comparison groups receiving currently available antidepressants were treated acutely i.p. or chronically (14 d osmotic pumps) with either desmethylimipramine (DMI) (10 mg/kg), fluoxetine (5 mg/kg), escitalopram (5 mg/kg), bupropion (10 mg/kg) or ketamine (10 mg/kg).
# Although corticosteroids are well known to produce depression (Gourley et al., Biol Psychiatry (2008) 64: 884-890), this occurs at high doses only. […] Mice were swum for 3 d and given either vehicle (0.8% ethanol) or corticosterone (12.5 μg/ml) in their drinking water.
# As described in Example 4a, the cocktail was tested in a mouse model of chronic depression (RFS).
structure (smiles),measurement,setting,value
"CC(C)(C)C(=O)Oc1cc(F)c(C(O)CN)cc1OC(=O)C(C)(C)C (stereo not shown) [dp6FNE, dipivalyl-6-fluoronorepinephrine]",acute effect in the repeated open-space swim test,[1],strong effect
same,acute effect in the repeated open-space swim test,[1]; listed as 6dpFNE,significant antidepressant action
same,persistence of anti-immobility effect,"[2]; dp6FNE 0.5 mg/kg, i.p., repeated daily",at least 11 daily treatments
same,increase of distance swum,"[2]; dp6FNE 1 mg/kg acute i.p., 15 min before 5th swim, with prazosin 0.2 mg/kg",+77.5±5.2%
same,"decrease of immobility, maximum effect","[2]; dp6FNE 3 mg/kg acute i.p., 15 min before 5th swim, with prazosin 0.2 mg/kg",−39.4±16.6%
same,"signs of toxicity (reduced arousal, disheveled fur coat) after repeated treatment","[2]; repeated daily treatment, no formal measures",no obvious signs of toxicity
same,effect of oral administration on immobility,"[2]; tube fed with prazosin 0.2 mg/kg, 45 min prior to the 5th swim",dose-dependent reduction in immobility
